Source: patent US8415312B2, “Compound which is a nystatin derivative” (Biosergen AS, priority 2007, dated 2013)
In brackets after ≈: the same amount, converted by molar mass. Several values for one entry are separate records, joined by “and”; a condition that tells them apart may be missing. Equal values may be shown once.

Experiments:
[1] = tested on: Fusarium oxysporum VKM F-140; assay: Antifungal susceptibility study (1), broth microdilution MIC; assay type: cell-based; conditions: lowest concentration preventing any visible growth, read at 48 hours, 35° C., RPMI 1640 pH 7.0
Protocol: (§1) ACROS ORGANICS, New Jersey, USA), pH 7.0, was used in study. […] Then these DMSO solutions were diluted 50-fold (first 10-fold and then 5-fold) in the test medium. […] The solutions were prepared just before using. The organisms used for susceptibility testing were: Candida albicans ATCC 14053, Cryptococcus humicolus ATCC 9949, Aspergillus niger ATCC 16404 and Fusarium oxysporum VKM F-140 (=CMI, IMI 90473). Organisms were stored on potato dextrose agar […] 50% glycerol solution at -70° C. For short-term storage, stock cultures were stored on agar […] 4° C. The cultures of yeasts were sub-cultured onto Sabouraud dextrose (SAB) agar and incubated for 24 hours at 35° C. (Candida albicans) or for 48 hours at 25° C. (Cryptococcus humicolus) to obtain a freshly grown pure culture. The cultures of moulds were sub-cultured onto potato dextrose agar and incubated for 7 days at 35° C. […] (Fusarium oxysporum) to ensure maximum sporulation. […] Finally, the suspensions were vortexed for 15 s to break up clumps of cells and then filtered through four layers of sterile gauze. The densities of conidial spore suspensions was measured at 530 nm and adjusted to 0.09-0.11 for Aspergillus niger and 0.15-0.17 for Fusarium oxysporum. These suspensions were diluted 1:50 with the standard medium. […] Inoculum quantitation was performed by plating dilution of the inoculum on Sabouraud dextrose agar to determine the viable number of CFU per milliliter. Sterile 96-well flat-bottomed microtitration plates were used for testing. 100 μl of diluted inocula were dispensed into each microdilution well containing 100 μl of the double dilutions of compounds. Drug-free and yeast/mould-free controls were included. Microdilution trays were incubated at 35° C. (Candida albicans and moulds) or 25° C. (Cryptococcus humicolus) without agitation and observed for the presence or absence of visible growth. […] Minimal inhibitory concentrations (MICs) were read at 48 hours.

[2] = tested on: Aspergillus niger ATCC 16404; assay: as above; assay type: cell-based; conditions: lowest concentration preventing any visible growth, read at 48 hours, 35° C., RPMI 1640 pH 7.0
Protocol: as §1

[3] = tested on: Cryptococcus humicolus ATCC 9949; assay: as above; assay type: cell-based; conditions: lowest concentration preventing any visible growth, read at 48 hours, 25° C., RPMI 1640 pH 7.0
Protocol: (§2) ACROS ORGANICS, New Jersey, USA), pH 7.0, was used in study. […] Then these DMSO solutions were diluted 50-fold (first 10-fold and then 5-fold) in the test medium. […] The solutions were prepared just before using. The organisms used for susceptibility testing were: Candida albicans ATCC 14053, Cryptococcus humicolus ATCC 9949, Aspergillus niger ATCC 16404 and Fusarium oxysporum VKM F-140 (=CMI, IMI 90473). Organisms were stored on potato dextrose agar […] 50% glycerol solution at -70° C. For short-term storage, stock cultures were stored on agar […] 4° C. The cultures of yeasts were sub-cultured onto Sabouraud dextrose (SAB) agar and incubated for 24 hours at 35° C. (Candida albicans) or for 48 hours at 25° C. (Cryptococcus humicolus) to obtain a freshly grown pure culture. The cultures of moulds were sub-cultured onto potato dextrose agar and incubated for 7 days at 35° C. […] (Fusarium oxysporum) to ensure maximum sporulation. […] Inoculum quantitation was performed by plating dilution of the inoculum on Sabouraud dextrose agar to determine the viable number of CFU per milliliter. Sterile 96-well flat-bottomed microtitration plates were used for testing. 100 μl of diluted inocula were dispensed into each microdilution well containing 100 μl of the double dilutions of compounds. Drug-free and yeast/mould-free controls were included. Microdilution trays were incubated at 35° C. (Candida albicans and moulds) or 25° C. (Cryptococcus humicolus) without agitation and observed for the presence or absence of visible growth. […] Minimal inhibitory concentrations (MICs) were read at 48 hours.

[4] = tested on: Candida albicans ATCC 14053; assay: as above; assay type: cell-based; conditions: lowest concentration preventing any visible growth, read at 48 hours, 35° C., RPMI 1640 pH 7.0
Protocol: as §2

erythrocytes = assay: In vitro toxicity study, haemolysis (Tables 11 and 12); assay type: cell-based, horse; conditions: for Haemolysis of erythrocytes, Mean ± S.E.M.: 25 μM (Table 12)
Protocol: The toxicity of various nystatin derivatives was tested at 2 and 5 μg/mL and at 25 μM.
Compounds were dissolved in DMSO at 5 mg/mL and 0.1 mL samples with different concentrations were prepared in DMSO. The samples were mixed with 0.9 mL PBS buffer containing 2.5% horse blood (PBS-HB; kept on ice) and incubated at 37° C. for 30 min without agitation.
Cells were pelleted by centrifugation at 5000 rpm for 5 min and haemolysis was evaluated by measuring OD545. 100% haemolysis was defined as the OD545 value obtained from a suspension of 2.5% horse blood in distilled water.

[5] = tested on: Candida albicans (strain 14053 ATCC); assay: Model of the candidiasis sepsis of mice, kidney burden; assay type: in vivo
Protocol: In experiments used female mice of hybrids of first generation (C57B1/6xDBA/2)F1 (B6D2F1), weight 18-20 g., received from the Central farm “Kryukovo” of Russian Academies of Medical Science (RAMS). Animals were maintained in Institute' vivarium in plastic cages (with hardwood bedding in environmentally controlled room: 24±1° C., 12/12 hours light/dark cycle) on a standard diet of bricketed forages with an easy approach to drinking water (ad libitum). After 2-week quarantine healthy animals were used in experimental work.
A preparation of comparison was amphotericin B (pure). Solutions of tested preparations prepared ex tempore by the technique specified by the customer.
Animals were housed on 3 mice and infected intravenously with culture Candida albicans in a doze 1.0 million CFU/mouse in volume of 0.1 ml. It is necessary to note, that doze Candida albicans remained a constant in all experiments. In 30 minutes after infection to mice carried out the first intravenous introduction of tested preparations in corresponding dozes in volume of 0.2 ml (with a speed of 0.2 ml/30 second).
Experiment has been planned in such a manner that in each experiment one doze (both for amphotericin B was used, and for tested preparations), each doze entered daily within four days, since day of infection (0, 1, 2 and 3 days). At each experiment there was a group untreated, infected with Candida albicans animals. Also there was a group “placebo”, intact (not infected) animals, which intravenously (in the same volume as medical preparations) injected 0.2 ml of solvent—phosphatic buffer +5% glucose (1:1).
On the post challenge 5th day of experiment, mice were weighed and euthanized (killed) by a cervical dislocation. Then, in sterile conditions, Candida albicans burdens were determined by viable counting of homogenates from the kidneys. The kidneys, which were removed aseptically and weighed, pounded in porcelain mortars with sterile corundum, did dilutions of the received suspensions and sowed on Petri dishes with agar Saburo, incubated for 48 hours at temperature 35° C., then counted up developed colonies Candida albicans and recalculated their quantity on 1 g of kidney' tissue. The first dilution was 10^−1. Zero result at this cultivation accepted for 5 CFU/g.
For the basic criterion of an assessment of the investigated preparations the maximal effect of the Amphotricin B was accepted (effective dose, ED).
For significant accepted distinctions of average at P≦0.05 at comparison by Student t-criterion.

[6] = tested on: mice (C57B1/6xDBA/2)F1 B6D2F1; conditions: single injection into tail vein, probit analysis
Protocol: Male mice of hybrids of first generation (C57B1/6xDBA/2)F1 B6D2F1, weight 20-22 g., received from the Central farm. “Kryukovo” of Russian Academies of Medical Science (RAMS) were used. Animals were maintained in a vivarium in plastic cages (with hardwood bedding in environmentally controlled conditions: 24±1° C., 12/12 hours light/dark cycle) on a standard diet of bricketed forages with easy access to drinking water (ad libitum). After a 2-week quarantine period, healthy animals were used in experimental work.
The solutions were prepared as follows: dry antibiotic substances (5 mg) were mixed with dry sodium deoxycholate (4.1 mg) in a sterile glass vial. 10 mL of phosphate buffer (NaH2PO4—1.59 g; Na2HPO4—0.96 g; H2O—to 100 mL) was added to the mix and the suspension was immediately subjected to vigorous shaking for 10 minutes until homogeneous suspensions were formed.
Preparations of amphotericin B and S44HP were also prepared in the same way.
The antibiotic preparations were singly injected into the mice's tail vein within 1-1.5 hours after the preparation of solutions. […] Each antibiotic was used in a range of doses resulting in 0% to 100% lethality and a minimum of 3 intermediate doses. Animals were randomized into groups, each containing 6 mice.

[7] = 25 μM, individual blood samples (Table 12)
[8] = dose 0.16 mg/kg/d i.v. for four days, day 5, n=3 mice
[9] = dose 0.62 mg/kg/d i.v. for four days, day 5, n=3 mice
[10] = dose 2.5 mg/kg/d i.v. for four days, day 5, n=3 mice
[11] = dose 10 mg/kg/d i.v. for four days, day 5, n=3 mice, zero result accepted for 5 CFU/g

| SMILES | MIC Fusarium oxysporum VKM F-140 [1] [µg/mL] | MIC Aspergillus niger ATCC 16404 [2] [µg/mL] | MIC Cryptococcus humicolus ATCC 9949 [3] [µg/mL] | MIC Candida albicans ATCC 14053 [4] [µg/mL] | Haemolysis of erythrocytes, Mean ± SE (erythrocytes; 5 μg/mL (Table 11)) [%] | Haemolysis of erythrocytes (erythrocytes; 5 μg/mL, individual blood samples # 1-3 (Table 11)) | Haemolysis of erythrocytes, Mean ± S.E.M. (erythrocytes) [%] | Haemolysis of erythrocytes (erythrocytes; [7]) | Candida albicans burden in kidneys (Mean) [5, 8] [CFU/g] | Candida albicans burden in kidneys (Mean) [5, 9] [CFU/g] | Candida albicans burden in kidneys (Mean) [5, 10] [CFU/g] | Candida albicans burden in kidneys (Mean) [5, 11] [CFU/g] | Candida albicans burden in kidneys (Mean) ([5]; in vivo, iv, 1.25 mg/kg/day) [CFU/g] | LD50 [6] [mg/kg] | MTD [6] [mg/kg] | Candida albicans burden in kidneys (Mean) ([5]; dose 1.25 mg/kg/d i.v. for four days, day 5, n=3 mice) [CFU/g] |
| --- | --- | --- | --- | --- | --- | --- | --- | --- | --- | --- | --- | --- | --- | --- | --- | --- |
| CC1C=CC=CC=CC=CC=CC=CC=CC(OC2OC(C)C(O)C(N)C2O)CC2OC(O)(CC(O)C(O)CCC(O)CC(O)CC(O)CC(=O)OC(C)C(C)C1O)CC(O)C2C(N)=O (stereo not shown) [Compound 7] | 8 (≈ 8.67 µM) | 2 (≈ 2.17 µM) | 1 (≈ 1.08 µM) | 2 (≈ 2.17 µM) | 5.2 ± 0.2 | 5.8% and 5.0% (2×) | 1.5 ± 0.17 | 1.7% and 1.3% and 1.9% (3×) and 1.0% and 0.9% |  |  |  |  |  |  |  |  |
| CC1C=CC=CC=CC=CC=CC=CC=CC(OC2OC(C)C(O)C(N)C2O)CC2OC(O)(CC(O)C(O)CCC(O)CC(O)CC(O)CC(=O)OC(C)C(C)C1O)CC(O)C2C(=O)NCCO (stereo not shown) [Compound 5] | 4 (≈ 4.14 µM) | 4 (≈ 4.14 µM) | 4 (≈ 4.14 µM) | 2 (≈ 2.07 µM) |  |  | 1.6 ± 0.2 | 1% and 1.9% and 1.3% and 2% and 1.8% and 2.1% |  |  |  |  |  |  |  |  |
| CC1O[C@@H](O[C@H]2/C=C/C=C/C=C/C=C/C=C/C=C/C=C/[C@H](C)[C@@H](O)[C@@H](C)[C@H](C)OC(=O)C[C@H](O)C[C@H](O)C[C@H](O)CC[C@@H](O)[C@H](O)C[C@]3(O)C[C@H](O)[C@@H](C(=O)NCCN(C)C)[C@H](C2)O3)[C@H](O)C(NCC2(O)OC[C@@H](O)[C@@H](O)[C@@H]2O)[C@@H]1O.Cl (stereo partly shown) [Compound 41] | 2 | 1 | 1 | 0.5 |  |  |  |  | 67000 | 22667 | 1667 | 5 | 2767 | 38.6 | 21.2 |  |
| CC1O[C@@H](O[C@H]2/C=C/C=C/C=C/C=C/C=C/C=C/C=C/[C@H](C)[C@@H](O)[C@@H](C)[C@H](C)OC(=O)C[C@H](O)C[C@H](O)C[C@H](O)CC[C@@H](O)[C@H](O)C[C@]3(O)C[C@H](O)[C@@H](C(=O)NCCN(C)C)[C@H](C2)O3)[C@H](O)C(N)[C@@H]1O (stereo partly shown) [Compound 48, N,N-dimethylaminoethyl (DMAE) S44HP Amide] | 1 (≈ 1.01 µM) | 1 (≈ 1.01 µM) | 0.5 (≈ 0.503 µM) | 0.5 (≈ 0.503 µM) |  |  |  |  | 51667 | 3233 | 63 | 5 |  | 32.2 | 25.9 | 1487 |
| CC1C=CC=CC=CC=CC=CC=CC=CC(OC2OC(C)C(O)C(N)C2O)CC2OC(O)(CC(O)C(O)CCC(O)CC(O)CC(O)CC(=O)OC(C)C(C)C1O)CC(O)C2C(=O)NCCN(C)C.NC(CCC(=O)O)C(=O)O (stereo not shown) [Compound 28] |  |  |  |  |  |  |  |  |  |  |  |  |  | 22.1 | 14.7 |  |
| CC1C=CC=CC=CC=CC=CC=CC=CC(OC2OC(C)C(O)C(N)C2O)CC2OC(O)(CC(O)CCCC(O)CC(O)CC(O)CC(=O)OC(C)C(C)C1O)CC(O)C2C(=O)NCCN(C)C.NC(CCC(=O)O)C(=O)O (stereo not shown) [Compound 27] |  |  |  |  |  |  |  |  |  |  |  |  |  | 20.6 | 10.8 |  |
